# “Also recorded” adds a separate entry of the source.
# Columns and labels:
# rat mGlu5 = rat mGlu5 (Rattus norvegicus, UniProt P31424); test: calcium fluorescence; assay type: cell-based; details: for less potent than 10e: potentiation EC50 relative to 10e
# mGlu5 = mGlu5 (Rattus norvegicus, UniProt P31424); test: radioligand binding with [3H]3-methoxy-PEPy; details: at highest concentration, 30 μM; partial and incomplete; data not shown
# [1] = system: open field locomotor activity; test: open field locomotor activity, compound dosed alone; assay type: in vivo, rat; details: dosed alone at 56.6 mg/kg
# [2] = transcellular permeability; details: >20 × 10^-6 cm/sec is preferred for CNS targets
# [3] = kinetic aqueous solubility screen; details: aqueous medium
# [4] = stability in rat liver microsomes; details: after 60 min
# [5] = stability in human liver microsomes; details: after 60 min
# Sequence of rat mGlu5 (P31424 21-1203): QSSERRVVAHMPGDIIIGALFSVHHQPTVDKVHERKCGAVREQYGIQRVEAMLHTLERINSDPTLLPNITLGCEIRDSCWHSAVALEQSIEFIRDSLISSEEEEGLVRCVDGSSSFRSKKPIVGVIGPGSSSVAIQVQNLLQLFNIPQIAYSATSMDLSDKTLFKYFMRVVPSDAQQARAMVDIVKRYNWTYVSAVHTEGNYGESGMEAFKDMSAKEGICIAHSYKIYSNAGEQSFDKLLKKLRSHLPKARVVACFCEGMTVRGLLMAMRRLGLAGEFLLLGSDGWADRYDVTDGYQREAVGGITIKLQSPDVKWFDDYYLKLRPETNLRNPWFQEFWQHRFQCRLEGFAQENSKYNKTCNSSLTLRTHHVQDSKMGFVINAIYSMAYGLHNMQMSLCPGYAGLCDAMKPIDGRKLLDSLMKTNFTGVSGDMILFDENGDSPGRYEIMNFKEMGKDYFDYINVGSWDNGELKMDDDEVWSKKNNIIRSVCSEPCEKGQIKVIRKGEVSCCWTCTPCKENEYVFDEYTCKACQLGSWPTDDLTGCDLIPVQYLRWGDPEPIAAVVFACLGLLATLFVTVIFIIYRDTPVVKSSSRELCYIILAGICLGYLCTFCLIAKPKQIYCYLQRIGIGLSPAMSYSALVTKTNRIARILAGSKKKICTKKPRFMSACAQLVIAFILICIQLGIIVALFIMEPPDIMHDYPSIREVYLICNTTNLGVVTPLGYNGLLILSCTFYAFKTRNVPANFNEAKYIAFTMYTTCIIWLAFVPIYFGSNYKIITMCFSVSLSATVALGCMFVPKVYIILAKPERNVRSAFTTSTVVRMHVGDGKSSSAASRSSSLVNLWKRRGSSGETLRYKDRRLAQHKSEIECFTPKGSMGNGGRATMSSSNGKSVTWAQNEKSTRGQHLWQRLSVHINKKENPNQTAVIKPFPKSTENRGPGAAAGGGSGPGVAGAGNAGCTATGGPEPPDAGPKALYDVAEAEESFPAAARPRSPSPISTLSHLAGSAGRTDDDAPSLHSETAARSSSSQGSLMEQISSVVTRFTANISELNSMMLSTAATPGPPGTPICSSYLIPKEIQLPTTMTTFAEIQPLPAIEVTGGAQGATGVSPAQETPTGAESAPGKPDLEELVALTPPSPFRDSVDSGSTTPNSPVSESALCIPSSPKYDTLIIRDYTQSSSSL
# Sequence of mGlu5 (P31424 21-1203): as above
smiles,measurement,setting,value
N#Cc1ccccc1N1CCN(C(=O)COCc2ccccc2)CC1 [10e],concentration at which compound alone slightly activates mGlu5,rat mGlu5; CRC in absence of glutamate,above 30 μM
same,mGlu5 agonism of compound alone,"rat mGlu5; compound alone, no glutamate, up to 10 μM",no inherent mGlu5 agonism; also recorded: no effect
same,potency enhancement vs. lead 8,rat mGlu5; potentiator of the glutamate EC20,> 3 fold
same,displacement of [3H]3-methoxy-PEPy radioligand,mGlu5,ca. 50%
same,sedation / abnormal behavior in open field locomotor activity,[1],no sedation or abnormal behavior; also recorded: without causing sedation
same,transcellular permeability,[2],acceptable
same,solubility kinetic,[3],> 30 µg/mL
same,parent compound remaining,[4],less than 5%
same,parent compound remaining,[5],less than 5%
COc1ccccc1N1CCN(C(=O)COCc2ccccc2)CC1 [10c],less potent than 10e,rat mGlu5,> 5 fold
COC(=O)c1ccccc1N1CCN(C(=O)COCc2ccccc2)CC1 [10f],less potent than 10e,rat mGlu5,> 5 fold
O=C(COCc1ccccc1)N1CCN(c2ncccn2)CC1 [10h],EC50,rat mGlu5,> 10 µM
